From PubChem BioAssay (NCI)
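In this assay, cells in 96-well plates receive the compound at five concentrations for 48 hours. Endpoints are linearly interpolated between the surrounding concentrations. TGI is the concentration that stops growth completely.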 Where a SMILES comes first, the peptide text is derived from it. [ ]: non-standard residue; d: D form. The star is where a group is joined. X28 = COC1=CC(=O)N(C(=O)[C@@H](O*)C(C)C)[C@H]1Cc1ccccc1; NMeV = CN[C@H](C(=O)O)C(C)C; Hexanoyl = CCCCCC(=O)*

What was measured:
Assay in all cases: DTP human tumour cell line panel, 48 h
A549 NSCLC = test system: A549 NSCLC
ACHN renal = test system: ACHN renal
CAKI-1 renal = test system: CAKI-1 renal
DU-145 prostate = test system: DU-145 prostate
EKVX NSCLC = test system: EKVX NSCLC
HCT-116 colon = test system: HCT-116 colon
HS 578T breast = test system: HS 578T breast
M14 melanoma = test system: M14 melanoma
NCI-H23 lung = test system: NCI-H23 lung
NCI/ADR-RES ovarian = test system: NCI/ADR-RES ovarian
OVCAR-3 ovarian = test system: OVCAR-3 ovarian
OVCAR-8 ovarian = test system: OVCAR-8 ovarian
PC-3 prostate = test system: PC-3 prostate
SK-MEL-28 melanoma = test system: SK-MEL-28 melanoma
SR leukemia = test system: SR leukemia
T-47D breast = test system: T-47D breast
UACC-257 melanoma = test system: UACC-257 melanoma
CCRF-CEM leukemia = test system: CCRF-CEM leukemia
HOP-92 NSCLC = test system: HOP-92 NSCLC
NCI-H522 lung = test system: NCI-H522 lung

Row | SMILES | TGI (A549 NSCLC) [µM] | TGI (ACHN renal) [µM] | TGI (CAKI-1 renal) [µM] | TGI (DU-145 prostate) [µM] | TGI (EKVX NSCLC) [µM] | TGI (HCT-116 colon) [µM] | TGI (HS 578T breast) [µM] | TGI (M14 melanoma) [µM] | TGI (NCI-H23 lung) [µM] | TGI (NCI/ADR-RES ovarian) [µM] | TGI (OVCAR-3 ovarian) [µM] | TGI (OVCAR-8 ovarian) [µM] | TGI (PC-3 prostate) [µM] | TGI (SK-MEL-28 melanoma) [µM] | TGI (SR leukemia) [µM] | TGI (T-47D breast) [µM] | TGI (UACC-257 melanoma) [µM] | TGI (CCRF-CEM leukemia) [µM] | TGI (HOP-92 NSCLC) [µM] | TGI (NCI-H522 lung) [µM]
1 | C[n+]1c2ccccc2c(C(=O)Nc2ccc(S(=O)(=O)Nc3ccnn3-c3ccccc3)cc2)c2ccccc21 | > 100 | > 100 | > 100 | > 100 | > 100 | > 100 | > 100 | > 100 | > 100 | > 100 | > 100 | > 100 | > 100 | > 100 | > 100 | > 100 | > 100 |  |  | 
2 | O=C1C(Cl)=C(OCCCCl)C(=O)c2c(O)ccc(O)c21 | 14.6 | 16.3 | 2.51 | 22.8 | 40.9 | 3.91 | 22.8 | 2.96 | 5.53 | 24.3 | 6.77 | 20.9 | 12.7 | 4.48 | 1.2 | 6.43 | 5.98 | 0.168 | 3.28 | 
3 | CCNCCNc1c2ccccc2nc2ccccc12 | 4.95 | 1.37 | 3.48 | 7.42 | 21.9 | 7.99 | 5.28 | 3.05 | 3.36 | 19.5 | 24.5 | 7.06 | 3.95 |  | 4.18 | 8.41 | 3.46 | 8.63 |  | 4.69
4 | O=S(=O)(O)c1ccc(O)c2ncc(Cl)cc12 | > 100 | > 100 | > 100 | > 100 | > 100 | > 100 |  | > 100 | > 100 | > 100 | > 100 | > 100 | > 100 | > 100 | > 100 | > 100 | > 100 | > 100 | > 100 | 
5 | COc1ccc(/C=C2\NC(=S)N(CN3CCCCC3)C2=O)cc1 | > 100 | > 100 |  | > 100 | > 100 | > 100 | 42 | > 100 | > 100 | > 100 | > 100 | 50 | > 100 | > 100 | > 100 |  |  | > 100 | > 100 | > 100
6 | Nc1ncnc2ccc(Sc3ccc4ncnc(N)c4c3)cc12 | > 100 | > 100 | > 100 | > 100 | > 100 | > 100 | > 100 | > 100 |  | > 100 | > 100 | > 100 | > 100 | > 100 | > 100 | > 100 | > 100 | > 100 | > 100 | 
7 | O=C(/C=C(\O)c1ccccc1)C(=O)NNc1ccc([N+](=O)[O-])cc1[N+](=O)[O-] | 34.1 | 66.5 | 43.1 | 32.9 | 56.3 | 27.4 |  | 31.3 | 47.2 | 36.6 |  | 53.6 | 44.9 | 60.8 | 43.6 | 48.5 | 99.8 | 43.5 |  | 82.4
8 | CC12CCC(CC1=O)C2(C)CCC(N)=O (stereo not given) | > 100 | > 100 | > 100 | > 100 | > 100 | > 100 | > 100 | > 100 | > 100 | > 100 | > 100 | > 100 | > 100 | > 100 |  | > 100 | > 100 | > 100 |  | > 100
9 | COc1ccc2nc(-n3c(/C=C/c4ccccc4O)nc4ccccc4c3=O)sc2c1 | > 100 | > 100 | > 100 | > 100 | 39.7 | 65.3 | > 100 | > 100 | > 100 | > 100 | > 100 | > 100 | > 100 | > 100 |  |  | > 100 | > 100 | > 100 | > 100
10 | CSc1ncc2c(C#N)c3sc4ccccc4n3c(=O)c2n1 | > 100 | > 100 | > 100 | > 100 | > 100 | > 100 | 51.3 | > 100 | > 100 | > 100 | > 100 | > 100 | > 100 | > 100 | > 100 | > 100 | > 100 | > 100 | > 100 | 
11 | CC(=O)OCOC(=O)CN(CC(=O)OCOC(C)=O)Cc1cc2c(cc1OC(C)=O)Oc1cc(OC(C)=O)c(CN(CC(=O)OCOC(C)=O)CC(=O)OCOC(C)=O)cc1C21OC(=O)c2ccccc21 | 4.82 | 4.02 | 6.77 | 6.35 | 10.6 | 1.5 | 1.59 | 3.68 | 2.51 | 75 | 2.98 | 3.23 | 4.82 | 1.76 |  | 4.21 | 1.27 | 0.374 | 3.06 | 1.17
12 | [N-]=[N+]=Nc1c(C=O)c(=O)n2c3c(cccc13)CCC2 | 40.9 | 11.5 | 16.2 | 21 | 50.5 | 10.9 | 57.3 | 3.9 | 12.2 | > 45.6 | 6.27 | 17.8 | 27.2 | 27.2 |  | 15.5 | 10 | 6.44 | 4.5 | 
13 | CC(C)(Br)C(Br)CCC(C)(Br)C(Br)CO (stereo not given) | > 10 | > 10 | > 10 | > 10 | > 10 | > 10 | > 10 | > 10 | > 10 | > 10 | > 10 | > 10 | > 10 | > 10 |  | > 10 | > 10 | > 10 | > 10 | > 10
14 | CCOP(=O)(OCC)C1CC(O)C(=O)N1 (stereo not given) | > 100 | > 100 |  | > 100 | > 100 | > 100 | > 100 | > 100 | > 100 | > 100 | > 100 | > 100 | > 100 | > 100 | > 100 |  | > 100 | > 100 |  | 
15 | CCC1C(C#N)=C(N)OC2=C1C(=O)CC(C)(C)C2 (stereo not given) | > 100 | > 100 | > 100 | > 100 | > 100 | > 100 | > 100 | > 100 | > 100 | > 100 | > 100 | > 100 | > 100 | > 100 |  |  | > 100 | > 100 | > 100 | > 100
16 | COc1cc(/C=C/C(=O)c2ccc(NS(=O)(=O)c3cc([N+](=O)[O-])ccc3C)cc2)cc(OC)c1OC | 18.6 | 15.9 | 17.3 | 10.2 | 17 | 6.49 |  | 15.3 | 11 | > 100 | 11.5 | 7.97 | 19.5 | 25 | 5.74 | 38.6 | 21.9 | 7.48 | 11.5 | 
17 | N#CC12C(=O)N3C(=NC(c4ccccc4)NC3c3ccccc3)C1(C#N)C(c1ccccc1)NC1=C2CCC1 (stereo not given) | > 100 | > 100 | > 100 | > 100 | > 100 | > 100 | > 100 | > 100 | > 100 | > 100 | > 100 | > 100 | > 100 | > 100 |  | > 100 | > 100 | > 100 | > 100 | > 100
18 | COc1ccc(/C=C2\C(=O)N(C3OC(COC(C)=O)C(OC(C)=O)C(OC(C)=O)C3OC(C)=O)c3ccccc3N=C2N)cc1 (stereo not given) | > 100 | > 100 | > 100 | 87.6 | > 100 | 49.7 | > 100 | 71.8 | 59.1 | 83.9 | 65.1 | 45.6 | 83.3 | 72.2 | 53.6 | 40.8 | 72.5 | > 100 | > 100 | 
19 | CCCCCC(=O)N[C@H](C(=O)N[C@H](C(=O)N(C)[C@H](C(=O)N1CCC[C@H]1C(=O)N1CCC[C@H]1C(=O)O[C@H](C(=O)N1C(=O)C=C(OC)[C@@H]1Cc1ccccc1)C(C)C)C(C)C)C(C)C)C(C)C (Hexanoyl-VV[NMeV]PP-X28) |  | > 100 | > 100 | > 100 | > 100 | > 100 | > 100 |  | > 100 | > 100 | > 100 | > 100 | 85.5 | > 100 |  | > 100 | > 100 | > 100 | > 100 | > 100
20 | NC(=O)N/N=C1\CCCCc2ccccc21 | > 10 | > 10 | > 10 | > 10 | > 10 | > 10 |  | > 10 | > 10 | > 10 | > 10 | > 10 | > 10 |  | > 10 | > 10 | > 10 | > 10 | > 10 | > 10
21 | CC(NNC(=O)c1ccncc1)c1ccc(F)cc1 (stereo not given) | > 100 | > 100 | > 100 | > 100 | > 100 | > 100 | > 100 | > 100 | > 100 | > 100 | > 100 | > 100 | > 100 | > 100 |  | > 100 | > 100 | > 100 | > 100 | > 100
22 | COc1ccc(OCc2nc3cc(C(F)(F)F)ccc3nc2-c2ccccc2)cc1 | > 100 | > 100 | > 100 | > 100 | > 100 | > 100 | > 100 | > 100 | > 100 | > 100 | > 100 | > 100 | > 100 | > 100 |  | > 100 | > 100 | > 100 | > 100 | 
23 | O=C(/C=C/c1ccccc1)CCN1CCN(CCC(=O)/C=C/c2ccccc2)CC1 | > 100 | 29.5 | 31.9 | 31.5 | 35.2 | 5.28 | 37.2 | 23.9 | 31.2 | 60.7 | 30.7 | 31.4 | 34 | 27.8 |  | 31.2 | 24 | 28.1 | 35.9 | 30
24 | NC1CC(=O)c2sc(I)cc21 (stereo not given) | > 100 | > 100 | > 100 | > 100 | > 100 | > 100 |  | > 100 |  | > 100 | > 100 | > 100 | > 100 | > 100 | > 100 | > 100 | > 100 | > 100 |  | 
25 | COCCN(C(C)=O)C1CCC2(SCCS2)c2[nH]c3ccccc3c21 (stereo not given) | > 100 | > 100 | > 100 | > 100 | > 100 | > 100 | > 100 |  | > 100 | > 100 | > 100 | > 100 | > 100 | > 100 | > 100 |  | > 100 | > 100 | > 100 | > 100
